The source of these data is paper PMC8397297 (ACS Chemical Neuroscience, 2021).

Molecules are shown by their SMILES.

In experiment [1] the target is T1, mGAT1 (Mus musculus, UniProt P31648).
T1 construct: expressed in transfected cells; host or cells: HEK-293
The experiment is described as follows: [3H]GABA uptake assay in HEK-293 cells stably expressing mGAT1. Format: cell-based. Particulars: for remaining [3H]GABA uptake mGAT1: in the presence of 100 μM inhibitor; for IC50: [3H]GABA uptake, read-out: pIC50 ± SEM mGAT1 (converted).

The next experiment addresses T2, mGAT2 (Mus musculus, UniProt P31651).
T2 construct: expressed in transfected cells; host or cells: HEK-293
T2 sequence (P31651 1-614): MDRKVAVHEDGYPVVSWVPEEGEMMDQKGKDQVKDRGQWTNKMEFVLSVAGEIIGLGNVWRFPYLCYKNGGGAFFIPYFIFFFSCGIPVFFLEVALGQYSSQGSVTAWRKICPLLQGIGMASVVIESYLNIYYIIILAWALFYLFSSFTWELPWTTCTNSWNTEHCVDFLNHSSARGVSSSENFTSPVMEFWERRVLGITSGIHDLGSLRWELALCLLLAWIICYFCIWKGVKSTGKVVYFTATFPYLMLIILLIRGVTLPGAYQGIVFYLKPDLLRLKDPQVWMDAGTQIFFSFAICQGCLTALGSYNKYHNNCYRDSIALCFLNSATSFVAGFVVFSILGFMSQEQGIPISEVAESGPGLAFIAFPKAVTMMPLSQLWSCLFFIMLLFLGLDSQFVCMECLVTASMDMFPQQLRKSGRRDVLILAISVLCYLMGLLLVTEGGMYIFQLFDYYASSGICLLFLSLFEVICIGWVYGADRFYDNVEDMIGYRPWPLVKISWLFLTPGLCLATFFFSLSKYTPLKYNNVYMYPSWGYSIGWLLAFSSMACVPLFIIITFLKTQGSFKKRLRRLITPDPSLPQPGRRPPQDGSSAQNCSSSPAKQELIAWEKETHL
The experiment is described as follows: [3H]GABA uptake assay in HEK-293 cells stably expressing mGAT2. Type of experiment: cell-based. To be noted: for remaining [3H]GABA uptake mGAT2: in the presence of 100 μM inhibitor; for IC50: [3H]GABA uptake, read-out: pIC50 ± SEM mGAT2 (converted).

The target in a further experiment is T3, mGAT3 (Mus musculus, UniProt P31649).
T3 construct: expressed in transfected cells; host or cells: HEK-293
T3 sequence (P31649 1-602): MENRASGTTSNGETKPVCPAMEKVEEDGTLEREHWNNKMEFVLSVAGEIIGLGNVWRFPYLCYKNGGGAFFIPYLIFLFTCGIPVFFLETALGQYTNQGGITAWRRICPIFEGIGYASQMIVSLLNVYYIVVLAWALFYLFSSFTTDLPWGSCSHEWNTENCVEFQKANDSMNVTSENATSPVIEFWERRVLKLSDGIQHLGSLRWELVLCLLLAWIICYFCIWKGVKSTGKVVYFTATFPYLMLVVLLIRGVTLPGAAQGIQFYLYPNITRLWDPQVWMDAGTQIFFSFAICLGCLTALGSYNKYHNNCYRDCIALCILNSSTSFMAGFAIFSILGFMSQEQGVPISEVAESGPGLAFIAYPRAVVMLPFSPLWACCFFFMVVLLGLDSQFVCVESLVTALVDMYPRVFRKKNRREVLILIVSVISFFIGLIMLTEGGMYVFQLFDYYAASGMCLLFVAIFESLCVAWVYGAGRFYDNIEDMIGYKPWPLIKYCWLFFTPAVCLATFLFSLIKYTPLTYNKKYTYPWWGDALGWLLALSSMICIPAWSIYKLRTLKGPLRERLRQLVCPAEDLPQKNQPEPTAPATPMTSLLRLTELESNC
The experiment is described as follows: [3H]GABA uptake assay in HEK-293 cells stably expressing mGAT3. Type of experiment: cell-based. To be noted: for IC50: [3H]GABA uptake, read-out: pIC50 ± SEM mGAT3 (converted).

Experiment [2] addresses T1, mGAT1. The experiment is described as follows: competitive MS binding assay with NO711 as unlabeled marker (LC-ESI-MS/MS). Particulars: in the presence of 100 μM inhibitor. Here is the method: Specific binding affinity toward mGAT1 was determined via a competitive mass spectrometry (MS) binding assay quantified by liquid chromatography–electrospray ionization tandem mass spectrometry (LC–ESI-MS/MS) with NO711 as an unlabeled marker.[50]
MS binding assays for mGAT1 were performed as described earlier.[50] Inhibition of mGAT1 binding by the synthesized compounds was determined in MS binding assays at a screening concentration of 100 μM and analyzed by LC–ESI-MS/MS.

A further experiment deals with T4, mGAT4 (Mus musculus, UniProt P31650).
T4 construct: expressed in transfected cells; host or cells: HEK-293
T4 sequence (P31650 1-627): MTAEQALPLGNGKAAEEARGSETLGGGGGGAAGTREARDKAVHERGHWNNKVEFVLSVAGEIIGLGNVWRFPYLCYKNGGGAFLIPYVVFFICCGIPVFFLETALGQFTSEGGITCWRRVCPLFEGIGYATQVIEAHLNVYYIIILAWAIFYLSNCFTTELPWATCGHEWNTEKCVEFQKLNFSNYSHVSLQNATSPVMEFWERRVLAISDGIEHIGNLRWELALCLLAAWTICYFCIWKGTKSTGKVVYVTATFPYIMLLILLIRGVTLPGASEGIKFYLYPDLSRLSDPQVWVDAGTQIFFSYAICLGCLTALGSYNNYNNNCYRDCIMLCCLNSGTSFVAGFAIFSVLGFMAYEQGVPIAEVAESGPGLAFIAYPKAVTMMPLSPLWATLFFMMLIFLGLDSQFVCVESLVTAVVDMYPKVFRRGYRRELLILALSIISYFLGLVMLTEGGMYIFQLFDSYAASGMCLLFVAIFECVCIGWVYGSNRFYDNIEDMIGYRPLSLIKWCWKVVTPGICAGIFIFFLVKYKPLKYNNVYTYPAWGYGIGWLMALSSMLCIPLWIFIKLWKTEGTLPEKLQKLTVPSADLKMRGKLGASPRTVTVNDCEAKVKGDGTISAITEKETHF
In words: [3H]GABA uptake assay in HEK-293 cells stably expressing mGAT4. Format: cell-based. Particulars: for remaining [3H]GABA uptake mGAT4: in the presence of 100 μM inhibitor; for IC50: [3H]GABA uptake, read-out: pIC50 ± SEM mGAT4 (converted).

As to `Cc1ccsc1C(=C1CCN(C(CC(C)O)C(=O)NCc2ccccc2Cl)CC1)c1sccc1C` (stereo not shown) [2RS,4SR-37b, 2-{4-[Bis(3-methylthiophen-2-yl)methylidene]piperidin-1-yl}-N-[(2-chlorophenyl)methyl]-4-hydroxypentanamide], at mGAT1 [1], the “remaining [3H]GABA uptake mGAT1” value is on record as 100 μM: 50%. The “remaining [3H]GABA uptake mGAT2” value at mGAT2 is 100 μM: 69%. For the same compound, the IC50 on mGAT3 is 72.4 µM. In addition, on mGAT1 [2], the “remaining NO711 binding mGAT1” value was 100 μM: 108%. Besides, at mGAT4, the “remaining [3H]GABA uptake mGAT4” value is reported as 100 μM: 56%.
In the case of `CC(O)CC(C(=O)NCc1ccccc1)N1CCC(=C2c3ccccc3-c3ccccc32)CC1` (stereo not shown) [2RS,4SR-41a, N-Benzyl-2-[4-(9H-fluoren-9-ylidene)piperidin-1-yl]-4-hydroxypentanamide], the IC50 was 85.1 µM on mGAT1 [1], 89.1 µM on mGAT2, 55 µM at mGAT3 and 72.4 µM at mGAT4. For the same compound, at mGAT1 [2], the “remaining NO711 binding mGAT1” value is listed as 100 μM: 89%.
On to `CC(O)CC(C(=O)NCc1ccccc1)N1CCC(=C2c3ccccc3CCc3ccccc32)CC1` (stereo not shown) [2RS,4SR-43a, N-Benzyl-2-(4-(10,11-dihydro-5H-dibenzo[a,d][7]annulen-5-ylidene)piperidin-1-yl)-4-hydroxypentanamide], for which the IC50 at mGAT1 [1] was 19.5 µM; at mGAT2, 58.9 µM; on mGAT3, 28.2 µM; on mGAT4, 15.8 µM. At mGAT1 [2], the “remaining NO711 binding mGAT1” value is 100 μM: 73%.
In the case of `CC(O)CC(C(=O)NCc1ccc(F)cc1)N1CCC(=C2c3ccccc3CCc3ccccc32)CC1` (stereo not shown) [2RS,4SR-43b, 2-(4-(10,11-Dihydro-5H-dibenzo[a,d][7]annulen-5-ylidene)piperidin-1-yl)-N-(4-fluorobenzyl)-4-hydroxypentanamide], on mGAT1 [1], the “remaining [3H]GABA uptake mGAT1” value is recorded as 100 μM: 54%. For the same compound, the “remaining [3H]GABA uptake mGAT2” value at mGAT2 is 100 μM: 80%. Moreover, the “remaining [3H]GABA uptake mGAT3” value on mGAT3 (in the presence of 100 μM inhibitor) is reported as 100 μM: 87%. The “remaining NO711 binding mGAT1” value at mGAT1 [2] is recorded as 100 μM: 102%. Also, on mGAT4, the “remaining [3H]GABA uptake mGAT4” value is 100 μM: 62%.
Turning to `CC(O)CC(C(=O)NCc1ccccc1)N(C)CCON=C(c1ccccc1)c1ccccc1` (stereo not shown) [2RS,4SR-45, N-Benzyl-2-[(2-{[(diphenylmethylidene)amino]oxy}ethyl)(methyl)amino]-4-hydroxypentanamide], the IC50 on mGAT1 [1] is 57.5 µM; at mGAT2, 31.6 µM; at mGAT3, 18.2 µM; on mGAT4, 39.8 µM. Besides, the “remaining NO711 binding mGAT1” value on mGAT1 [2] is listed as 100 μM: 86%.
For `CN(CCON=C(c1ccccc1)c1ccccc1)C(CCO)C(=O)NCc1ccccc1` (stereo not shown) [Compound 47a, N-Benzyl-2-[(2-{[(diphenylmethylidene)amino]oxy}ethyl)(methyl)amino]-4-hydroxybutanamide], the IC50 on mGAT1 [1] was 16.6 µM; on mGAT2 it was 36.3 µM; on mGAT3, 18.2 µM; at mGAT4, 14.8 µM. In addition, the “remaining NO711 binding mGAT1” value on mGAT1 [2] is recorded as 100 μM: 87%.
For `CN(CCON=C(c1ccccc1)c1ccccc1)C(CCO)C(=O)NCc1ccccc1Cl` (stereo not shown) [Compound 47b, N-[(2-Chlorophenyl)methyl]-2-[(2-{[(diphenylmethylidene)amino]oxy}ethyl)(methyl)amino]-4-hydroxybutanamide], in that order: 31.6 µM, 13.8 µM, 9.12 µM, 18.6 µM and 100 μM: 86%.
On to `CN(CCON=C(c1ccccc1)c1ccccc1)C(CCO)C(=O)NCc1ccc(Cl)c(Cl)c1` (stereo not shown) [Compound 47c, N-[(3,4-Dichlorophenyl)methyl]-2-[(2-{[(diphenylmethylidene)amino]oxy}ethyl)(methyl)amino]-4-hydroxybutanamide], for which the IC50 on mGAT1 [1] was 21.9 µM; on mGAT2, 10.2 µM; on mGAT3, 11 µM; on mGAT4, 7.08 µM. At mGAT1 [2], the “remaining NO711 binding mGAT1” value was 100 μM: 82%.
